Key:
[1] = test system: brain levels of 2-AG, arachidonic acid, NAEs, MAGs, free fatty acids; assay: Measurement of brain lipids in treated mice; format: in vivo, mouse; details: URB597 10 mg/kg, i.p.
Procedure: Measurement of brain lipids. One half brain was weighed and subsequently Dounce homogenized in 2:1:1 v/v/v CHCl3:MeOH:Tris pH 8.0 (8 ml) containing standards for N-acylethanolamine (NAE), monoacylglycerol (MAG), or free fatty acid (FFA) measurements (200 pmol d4-OEA, 20 pmol d4-AEA, 400 pmol C15:0-MAG, and 4 nmol PDA). The mixture was vortexed and then centrifuged (1,400×g, 10 min). The organic layer was removed, CHCl3 was added until the final volume was again 8 ml, and the extraction was repeated. The combined organic extracts were dried under a stream of N2 and resolubilized in 2:1 v/v CHCl3:MeOH (120 μl). 30 uL and 15 uL of resolubilized lipid were injected for positive mode (MAG and NAE) and negative mode (free fatty acid) measurements, respectively. Lipid measurements were performed by LC-MS using the same instrument and solvents as described above. Solvent modifiers such as 0.1% formic acid or 0.1% ammonium hydroxide were included to assist in ion formation in positive and negative ionization mode, respectively. For positive mode measurements, the flow rate for each run started at 0.1 ml/min for 5 min. […] MAGs, NAEs, and FFAs were quantified by measuring the area under the peak in comparison to the C15:0 or deuterated standards. […]

[2] = target: T1, FAAH (Mus musculus, UniProt O08914); assay: FAAH activity of brain membranes from treated mice (competitive ABPP, oleamide substrate assay); format: in vivo; details: URB597 10 mg/kg, i.p.
T1 construct: from tissue; host or cells: mouse brain membrane fraction
T1 sequence (O08914 1-579): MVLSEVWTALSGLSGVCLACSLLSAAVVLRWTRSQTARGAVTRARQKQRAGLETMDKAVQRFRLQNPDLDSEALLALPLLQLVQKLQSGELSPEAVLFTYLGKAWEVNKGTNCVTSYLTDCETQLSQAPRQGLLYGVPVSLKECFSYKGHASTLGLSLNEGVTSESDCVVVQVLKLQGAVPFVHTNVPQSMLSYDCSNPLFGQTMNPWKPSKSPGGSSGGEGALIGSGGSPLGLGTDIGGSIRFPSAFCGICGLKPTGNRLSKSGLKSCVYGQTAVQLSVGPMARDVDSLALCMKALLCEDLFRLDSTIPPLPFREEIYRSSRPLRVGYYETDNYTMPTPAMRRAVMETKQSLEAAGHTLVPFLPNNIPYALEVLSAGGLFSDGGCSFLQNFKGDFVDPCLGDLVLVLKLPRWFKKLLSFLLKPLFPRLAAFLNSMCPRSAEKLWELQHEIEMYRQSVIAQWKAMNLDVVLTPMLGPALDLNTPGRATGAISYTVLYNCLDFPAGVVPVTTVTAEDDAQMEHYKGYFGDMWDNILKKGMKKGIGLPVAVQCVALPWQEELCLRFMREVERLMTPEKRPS
Procedure: Enzyme activity assays. Briefly, 2-AG (100 μM) was incubated with mouse brain membrane (20 μg) or recombinant MAGL in COS7 cells (0.1 μg) in PBS (200 μl) at room temperature for 10 min. The reactions were quenched by the addition of 500 μL 2:1 v/v CHCl3:MeOH, doped with 0.5 nmol PDA, vortexed, then centrifuged (1,400×g, 3 min) to separate the phases. 30 ul of the resultant organic phase was injected onto an Agilent 1100 series LC-MSD SL instrument. […] Mobile phase A was composed of 95:5 v/v H2O:MeOH, and mobile phase B was composed of 60:35:5 v/v/v i-PrOH:MeOH:H2O. 0.1% ammonium hydroxide was included to assist in ion formation in negative ionization mode. […] Hydrolysis products were quantified by measuring the area under the peak in comparison to the PDA standard. ^13C-oleamide or AEA hydrolysis activity was determined using mouse brain membrane (50 μg) or recombinant FAAH in COST cells (5 μg), respectively, in PBS (100 μl). […] DAGLβ hydrolysis activity was determined using recombinant DAGLβ in HEK293 cells (50 μg) in PBS (100 μl). […]
Competitive activity-based protein profiling (ABPP) experiments. […] After 30 min at room temperature, the reactions were quenched with 4×SDS-PAGE loading buffer, boiled for 5 min at 90° C., subjected to SDS-PAGE, and visualized in-gel using a flatbed fluorescence scanner. […]

## NC(=O)c1cccc(-c2cccc(OC(=O)NC3CCCCC3)c2)c1 [URB597]
[1]
  brain 2-AG or arachidonic acid levels: without altering
  brain anandamide and other NAEs: significant elevations
[2]
  brain FAAH activity: completely inhibited
